Test results from patent US20250092067A1, “APT1 and APT2 Inhibitors and Uses Thereof” (Cornell University, priority 2021, published 2025).
pIC50: −log10 of the molar value. Values joined by “and” are separate entries in the source; they are usually repeats but may differ in a detail not shown here. Identical values can stand only once. Like-named read-outs stand apart in the source and are kept apart here.

What was measured:
APT1 [1] = biological target: T1, APT1 (Homo sapiens, UniProt O75608); test: APT1 enzymatic assay, resorufin acetate as fluorogenic substrate; format: biochemical; conditions: for IC50: read-out: IC50 (μM) APT1
T1 construct: made in house; host or cells: E. coli BL21 (DE3)
T1 sequence (O75608 whole entry): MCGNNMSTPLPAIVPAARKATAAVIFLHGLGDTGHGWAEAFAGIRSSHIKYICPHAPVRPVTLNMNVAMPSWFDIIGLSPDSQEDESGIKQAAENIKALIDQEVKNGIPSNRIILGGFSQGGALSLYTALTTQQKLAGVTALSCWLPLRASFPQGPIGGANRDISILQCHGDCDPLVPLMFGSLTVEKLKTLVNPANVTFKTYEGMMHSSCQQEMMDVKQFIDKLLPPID

SMAD2 palmitoylation = SMAD2 palmitoylation in HEK 293T cells (Alk14 labeling, in-gel fluorescence); format: cell-based; conditions: inhibitors at 25 μM, 6 h
STAT3 palmitoylation [2] = test: STAT3 palmitoylation in HEK 293T cells transfected with STAT3, APT2 and DHHC7; format: cell-based; conditions: inhibitors at 25 μM for 16 hours
HEK 293T cells = test: Cell viability of HEK 293T cells; conditions: at 50 mM (so in the source)
APT2 [3] = biological target: T2, APT2 (Homo sapiens, UniProt O95372); test: APT2 enzymatic assay, resorufin acetate as fluorogenic substrate; format: biochemical; parameters: made in house; host or cells: E. coli BL21 (DE3)
T2 sequence (O95372 whole entry): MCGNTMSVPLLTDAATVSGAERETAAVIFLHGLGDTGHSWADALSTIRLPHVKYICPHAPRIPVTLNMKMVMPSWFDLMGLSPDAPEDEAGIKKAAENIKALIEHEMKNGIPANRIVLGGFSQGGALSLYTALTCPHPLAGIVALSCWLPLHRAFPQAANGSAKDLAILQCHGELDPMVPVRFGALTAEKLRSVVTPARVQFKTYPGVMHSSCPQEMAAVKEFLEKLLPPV

APT1 [4] = biological target: T1, APT1; test: Competitive in vitro ABPP with TAMRA-FP, cell lysate spiked with APT1; format: binding; conditions: qualitative, FIG. 6C
off target proteins = test: TAMRA-FP ABPP in APT2 spiked cell lysate, other bands (off targets); format: binding; conditions: FIG. 8
STAT3 palmitoylation [5] = test: STAT3 palmitoylation in HEK 293T cells expressing STAT3 and DHHC7 (endogenous APT2); format: cell-based; conditions: 16-hour treatment; for palmitoylation signal of STAT3: 50 μM
DSS induced colitis = test: Dextran sodium sulfate (DSS) induced colitis model; format: in vivo, mice; conditions: for lengths of the colons compared to the control groups / colon length longer than the control group / colon length difference to control: 50 mg/kg intraperitoneal; for lengths of the colons compared to the control groups: 2.5% DSS, all groups; for body weight loss / colon length longer than the control group: female mice; for difference in body weight / colon length difference to control: male mice
[6] = 50 mg/kg daily injection
APT2 [7] = biological target: T2, APT2; test: Competitive in vitro ABPP with TAMRA-FP, cell lysate spiked with APT2; format: binding; parameters: made in house; host or cells: E. coli BL21 (DE3); conditions: for inhibition at 90 µM: inhibitor at 90 μM
APT2 [8] = biological target: T2, APT2; test: Gel filtration assay to identify covalent inhibitors (TAMRA-FP labeling); format: biochemical; parameters: expressed in transfected cells; host or cells: HEK 293T
[9] = Table 1, resorufin acetate as the substrate
[10] = Table 1, resorufin acetate as the substrate, read-out: IC50 (μM) APT2
[11] = Table 2, class symbols, read-out: IC50 (μM) APT2
[12] = Example 3 (FIG. 4), 15 min pre-incubation
[13] = Example 3 (FIG. 4), 15 min pre-incubation, read-out: IC50 APT2
[14] = read-out: inhibition of TAMRA-FP fluorescent labeling of APT2

SMILES | IC50 (APT1 [1]; [9]) [µM] | IC50 (APT1 [1]; Table 2, class symbols) [µM] | IC50 (APT2 [3]; [10]) [µM] | IC50 (APT2 [3]; [11]) [µM] | further results
COc1ccc(N2CCN(C(=O)c3cc4cc(B(O)O)c5ccccc5c4s3)CC2)cc1 [KW05129] | 0.19 | 0.1 to 1 | 0.079 | < 0.1 | SMAD2 palmitoylation level (SMAD2 palmitoylation): slightly better than ML349; STAT3 palmitoylation level (acylation normalized by STAT3 protein) (STAT3 palmitoylation [2]): slightly better than ML349; effect on cell viability (HEK 293T cells): no effect; time-dependent inhibition of APT2 (APT2 [3]; pre-incubation 30 min versus standard): not observed; APT2 IC50 lower than that of ML349 (APT2 [3]; relative to ML349): 8.54 fold
CCCOc1ccc(N2CCN(C(=O)c3cc4c(s3)-c3ccccc3S(=O)(=O)C4)CC2)cc1 [MY1, (5,5-Dioxido-4H-thieno[3,2-c]thiochromen-2-yl) (4-(4-propoxyphenyl)piperazin-1-yl) methanone] | – | – | – | – | IC50 APT2 (APT2 [3]; [12]): did not improve the potency
CCCNC(=O)c1cc2c(s1)-c1ccccc1S(=O)(=O)C2 [APT-MY3, N-Propyl-4H-thieno[3,2-c]thiochromene-2-carboxamide 5,5-dioxide] | > 200 | > 40 | > 200 | > 40 | –
CCCCCCCCc1ccc(NC(=O)c2cc3c(s2)-c2ccccc2S(=O)(=O)C3)cc1 [APT-MY6, N-(4-octylphenyl)-4H-thieno[3,2-c]thiochromene-2-carboxamide 5,5-dioxide] | > 200 | > 40 | > 200 | > 40 | –
CCCCCCN1CCN(C(=O)c2cc3c(s2)-c2ccccc2S(=O)(=O)C3)CC1 [APT-MY4, (5,5-dioxido-4H-thieno[3,2-c]thiochromen-2-yl) (4-hexylpiperazin-1-yl) methanone] | > 200 | > 40 | 3.99 | 1 to 40 | –
CCCCCCCCNC(=O)c1cc2c(s1)-c1ccccc1S(=O)(=O)C2 [APT-MY7, N-octyl-4H-thieno[3,2-c]thiochromene-2-carboxamide 5,5-dioxide] | > 200 | > 40 | > 200 | > 40 | –
CCCOc1ccc(N2CCN(C(=O)c3cc4c(s3)-c3ccccc3S(=O)(=O)C4)CC2)cc1 [APT-MY1] | > 200 | > 40 | 0.836 | 0.1 to 1 | –
COc1ccc(N2CCN(C(=O)c3ccc(-c4ccccc4B(O)O)s3)CC2)cc1 [KW5175, (2-(5-(4-(4-methoxyphenyl)piperazine-1-carbonyl)thiophen-2-yl)phenyl)boronic acid] | – | – | – | – | IC50 APT2 (APT2 [3]; [12]): much less potent
CCCCCCOc1ccc(N2CCN(C(=O)c3cc4c(s3)-c3ccccc3S(=O)(=O)C4)CC2)cc1 [APT-MY2] | > 200 | > 40 | 2.03 | 1 to 40 | –
COc1ccc(N2CCN(C(=O)c3cc4cc(B(O)O)c5ccccc5c4s3)CC2)cc1 [KW5129, (2-(4-(4-Methoxyphenyl)piperazine-1-carbonyl)naphtho[1,2-b]thiophen-5-yl)boronic acid] | – | – | – | – | APT1 IC50 higher than APT2 IC50 (APT1 [1]; APT1 IC50 versus APT2 IC50): about 5.2 fold; pIC50 (APT1 [1]; Example 3 (FIG. 4), 15 min pre-incubation, read-out: IC50 APT1): 6.39; inhibition of APT1 in competitive ABPP (APT1 [4]): could also inhibit APT1; change of fluorescent intensity in bands other than APT2 (off target reaction) (off target proteins): only seen in the APT2 band; palmitoylated STAT3 (STAT3 palmitoylation [5]; 25 μM): significant increase; palmitoylation signal of STAT3 (STAT3 palmitoylation [5]): more potent; lengths of the colons compared to the control groups (DSS induced colitis): significant increase; body weight loss (DSS induced colitis): less severe; colon length longer than the control group (DSS induced colitis): 1.4 cm; difference in body weight (DSS induced colitis): no statistically significant difference; colon length difference to control (DSS induced colitis): ~0.5 cm; tolerability in mice [6]: well tolerated; pIC50 (APT2 [3]; [13]): 7.10; more potent at inhibiting APT2 compared with ML349 (APT2 [3]; relative to ML349): ~9 times; inhibition at 90 µM (APT2 [7]; [14]): ~90%; inhibition of TAMRA-FP fluorescent labeling of APT2 (APT2 [7]; inhibitor at 270 μM): almost completely abolished; mode of APT2 inhibition (covalent or non-covalent) (APT2 [8]; from gel filtration assay): non-covalent inhibitor; TAMRA-FP fluorescent labeling of APT2 after gel filtration (APT2 [8]; lysate treated with inhibitor, passed over size exclusion column): almost complete fluorescent labeling after just one gel filtration
COc1ccc(N2CCN(C(=O)c3cc4c(s3)-c3ccccc3S(=O)(=O)C4)CC2)cc1 [ML349, reference compound] | > 200 | > 40 | 0.675 | 0.1 to 1 | APT2 selectivity / inhibition of APT1 (APT1 [1]; qualitative, FIG. 4): selective for APT2; change of fluorescent intensity in bands other than APT2 (off target reaction) (off target proteins): only seen in the APT2 band; STAT3 palmitoylation level (acylation normalized by STAT3 protein) (STAT3 palmitoylation [2]): increase STAT3 palmitoylation levels; palmitoylation signal of STAT3 (STAT3 palmitoylation [5]): slightly increased; lengths of the colons compared to the control groups (DSS induced colitis): significant increase; body weight loss (DSS induced colitis): less severe; colon length longer than the control group (DSS induced colitis): 1.4 cm; difference in body weight (DSS induced colitis): no statistically significant difference; colon length difference to control (DSS induced colitis): ~0.5 cm; effect on cell viability (HEK 293T cells): no effect; inhibition at 90 µM (APT2 [7]; [14]): ~70%; inhibition at 270 µM (APT2 [7]; inhibitor at 270 μM, read-out: inhibition of TAMRA-FP fluorescent labeling of APT2): ~70%
CCCCCCOc1ccc(N2CCN(C(=O)c3cc4c(s3)-c3ccccc3S(=O)(=O)C4)CC2)cc1 [MY2, (5,5-dioxido-4H-thieno[3,2-c]thiochromen-2-yl) (4-(4-(hexyloxy)phenyl)piperazin-1-yl) methanone] | – | – | – | – | IC50 APT2 (APT2 [3]; [12]): did not improve the potency
Cc1ccc(NC(=O)c2cc3c(s2)-c2ccccc2S(=O)(=O)C3)cc1 [APT-MY5, N-(p-tolyl)-4H-thieno[3,2-c]thiochromene-2-carboxamide 5,5-dioxide] | > 200 | > 40 | > 200 | > 40 | –
COc1ccc(N2CCN(C(=O)c3ccc(-c4ccccc4B(O)O)s3)CC2)cc1 [KW05175] | – | – | 16.1 | 1 to 40 | –
COc1ccc(N2CCN(C(=O)c3cc4c(s3)-c3ccccc3[S+]([O-])C4)CC2)cc1 (centres unmarked) [APT-MY8] | > 200 | > 40 | – | – | –
COc1ccc(N2CCN(C(=O)c3cc(B(O)O)cs3)CC2)cc1 [KW05192] | – | – | 1.06 | 1 to 40 | –
COc1ccc(N2CCN(C(=O)c3cc(B(O)O)cs3)CC2)cc1 [KW5192, (5-(4-(4-Methoxyphenyl)piperazine-1-carbonyl)thiophen-3-yl)boronic acid] | – | – | – | – | pIC50 (APT2 [3]; [13]): 5.96
COc1ccc(N2CCN(C(=O)c3cc4cc(S(=O)(=O)F)c5ccccc5c4s3)CC2)cc1 [KW5191, 2-(4-(4-Methoxyphenyl)piperazine-1-carbonyl)naphtho[1,2-b]thiophene-5-sulfonyl fluoride] | – | – | – | – | pIC50 (APT2 [3]; IC50 APT2): 5.74
COc1ccc(N2CCN(C(=O)c3cc4cc(S(=O)(=O)F)c5ccccc5c4s3)CC2)cc1 [KW05191] | – | – | – | – | IC50 (APT2 [3]; IC50 (μM) APT2): 1.77 µM and 1 to 40 µM
O=C(CN1CCN(C(=O)c2ccco2)CC1)Nc1cc(C(F)(F)F)ccc1Cl [ML348, reference compound] | – | – | > 200 | > 40 | –
COc1ccc(N2CCN(C(=O)c3cc4cc(O)c5ccccc5c4s3)CC2)cc1 [KW5130, (5-Hydroxynaphtho[1,2-b]thiophen-2-yl) (4-(4-methoxyphenyl)piperazin-1-yl) methanone] | – | – | – | – | pIC50 (APT2 [3]; [13]): ~5.30
